Assay results published in PMC6261997, “Synergistic enzymatic and bioorthogonal reactions for selective prodrug activation in living systems” (Nature Communications, 2018).

Experiments:
CCC-HEH-2 cells = test: Clonogenic assay, CCC-HEH-2 cells; format: cell-based, human; conditions: pre-treated with 500 μM 2 for 6 h
Procedure: Supplementary Figure 17. Clonogenic assay of different cell lines before and after treatment with 2. HeLa cells, HUVECs and Saos-2 cells were seeded at density of 400 cells per well, CCC-HEH-2 cells were seeded at density of 200 cells per well. Cells were incubated with 500 µM 2 for 6 h in the treatment groups. Cells were not treated with compound 2 in the control groups. Colonies were harvest approximately 10 days after seeding. Scale bar, 10 mm.
Supplementary Figure 18. Cytotoxicity of activated Dox against HeLa cells and HUVECs. HeLa cells or HUVECs at the density of 3x10^3 cells per well were incubated with 100 µL of pre-warmed medium containing compound 2 at 300 or 500 µM for 6 h. After washing with PBS, 100 µL of 0.0001-10 µM TCO-Dox was added. After 72 h, cell proliferation was assessed by the MTT assay (n= 6). Error bars indicate standard […]
Supplementary Figure 19. […] At each time point, the remaining 2, corresponding generated 3 and remaining TCO-Dox were determined by UPLC-MS/MS. […]
Clonogenic assay of cells in vitro: Clonogenic assay was performed according to the standard protocol.6 2×10^5 attached cells were treated with 500 µM of 2 for 6 h in culture dishes. Cells were then detached, re-suspended in cultural medium and counted accurately. […]
The glutaraldehyde crystal violet mixture was removed carefully. […] The number of the colonies was counted using a stereomicroscope. […]

HeLa cells = test: Intracellular Tz accumulation by fluorescence liberation from TCO-CMR, HeLa cells; format: cell-based
Procedure: Next, we tested the intracellular accumulation of Tz via EISA in an attempt to differentiate cancer cells from normal cells. First, we investigated the accumulation of Tz in HeLa cells and HUVECs over time via fluorescence liberation from TCO-CMR (Fig. 3a). […] The cells were then washed with PBS thoroughly before the addition of an excessive amount of TCO-CMR (100 μL, 50 μM), and the reaction of TCO-CMR with the intracellular accumulated Tz was allowed to proceed for up to 24 h (Supplementary Fig. 8). In this experimental setting, the total liberated fluorescence was proportional to the amount of 3 accumulated inside the cells. […] Therefore, the optimized concentration of 2 (e.g. 500 μM) and incubation time (e.g. 6 h) were selected to differentiate between cancer and normal cells according to liberated fluorescence intensity (Fig. 3c). This differentiation was dependent on the considerably different phosphatase activity between these cell lines (Supplementary Fig. 11), allowing EISA to specifically occur in cancer cells as opposed to normal cells.
All cells were purchased from the National Infrastructure of Cell Line Resource (Beijing, China). HeLa cells, HUVECs and CCC-HEH-2 cells were cultured in a humidified CO2 (5%) incubator at 37 °C in DMEM supplemented with 10% foetal bovine serum (FBS, Gibco) and 1% Pen Strep (PS, Gibco). Saos-2 cells were cultured in a humidified CO2 (5%) incubator at 37 °C in McCoy’s 5A medium supplemented with 10% FBS and 1% PS. Cells were plated in flat-bottom 96-well plates (Corning) at a density of 10^4 cells per well and allowed to attach for 12 h. Then, the culture medium was replaced with 100 μL of pre-warmed medium containing 2 at different concentrations (100–500 μM). After incubation for different durations (1–24 h), the cells were rinsed with PBS, and then 100 μL of 50 μM TCO-CMR (dissolved in PBS) was added for real-time detection of the fluorescence intensity of coumarin in a plate reader (Perkin Elmer).

HeLa tumours = test: Tumour inhibition test, subcutaneous HeLa xenograft; format: in vivo, BALB/c nude mice
Procedure: All animal studies were performed in accordance with the Institutional Animal Use and Care Regulations approved by the National Institutes of Health Clinical Center/Animal Care and Use Committee (NIH CC/ACUC). Athymic female nude mice (5–6 weeks old) were purchased from Beijing Huafukang Bioscience Co., Ltd., and raised in a specific-pathogen-free barrier facility. Tumour-bearing mice were established by subcutaneously injecting a suspension of 10^6 HeLa cells per mouse into the front flank of each nude mouse.
After 14 days, the mice were sacrificed.

## Cc1nnc(-c2ccc(CC(=O)NCCCCC(NC(=O)Cc3ccc4ccccc4c3)C(=O)NC(Cc3ccc(OP(=O)(O)O)cc3)C(=O)NC(Cc3ccccc3)C(=O)O)cc2)nn1 (centres unmarked) [compound 2, NapK(Tz)YpF]
CCC-HEH-2 cells
  Surviving Fraction, CCC-HEH-2: 92.2 ±8.3%
HeLa cells; 500 μM 2, then 50 μM TCO-CMR
  incubation time at which liberated fluorescence reaches maximum value: approximately 6 h
HeLa cells; pre-incubated with 400 or 500 μM 2
  fluorescence emission of liberated coumarin in HeLa cells: increased significantly
HeLa tumours; after treatment for 14 days
  histological examination of dissected tumours (HE staining): the HeLa cells remained normal
HeLa tumours; i.v., three courses (day 0, 3, 6), 50 mg kg^−1 2, 30 mg kg^−1 TCO-Dox, 5 mg kg^−1 Dox, or 50 mg kg^−1 2 then 30 mg kg^−1 TCO-Dox after 2 h
  tumour growth: rapid growth similar to that observed in the saline control group
